Source: patent US20110027324A1, “O-DESMETHYL-V[…] TREATING MAJOR DEPRESSIVE DISORDER” (Wyeth LLC, priority 2007, published 2011)

Legend:
[1] = test system: subjects with a primary diagnosis of MDD; assay: MDD Study No. 3: efficacy evaluation, randomized double-blind placebo-controlled study; format: in vivo, human; conditions: for CGI-S score, Δ from Baseline: baseline 4.3, placebo −1.10; for HAM-D6, Δ from Baseline: placebo −4.82; for MADRS total score, Δ from Baseline: placebo −11.0
Experimental: This example describes the results of a third multicenter, randomized, double-blind, placebo-controlled, parallel-group study that was also designed to evaluate the efficacy and safety of 50 and 100 mg/day ODV for treating MDD.
Subjects were male or female adults that met the same criteria as the subjects in Example 1. The administration protocols for 50 or 100 mg/day and placebo groups were the same as in Example 1.
The primary and secondary outcomes were the same as in Example 1 as were the statistical methods. A Global F-test was also used to analyze the results. The purpose of this test was to compare the two fixed doses with placebo to control for Type-I error. Statistical significance is met if the p-value for the Global F-test <0.05, followed by un-adjusted pairwise comparison between either dose and placebo at 0.05 significance level.

[2] = test system: subjects with a primary diagnosis of MDD; assay: MDD Study No. 2: safety evaluation (AEs, DESS, laboratory); format: in vivo, human; conditions: for subjects with AEs as reason for discontinuation: on-therapy period, placebo 3%
Experimental: The safety of the two doses was determined using the same assessments as in Example 1. […] Headache was the only TPAE with an incidence≧5% in the placebo group.
The DESS checklist was used to evaluate symptoms that first occurred, or that worsened, during the taper period (the 7-day period after the end of the double-blind treatment period). During this 7-day period, doses of ODV were tapered to 0 mg for subjects in the 50 mg group, and to 50 mg for subjects in the 100 mg group. The DESS checklist was administered to 420 of the 423 subjects who had completed at least 53 days of on-therapy treatment.

[3] = test system: subjects with a primary diagnosis of MDD; assay: MDD Study No. 1: safety evaluation (AEs, DESS, laboratory, vital signs, ECG); format: in vivo, human; conditions: for subjects with AEs as reason for study discontinuation: double-blind on-therapy period, placebo 3%; for subjects reporting serious or noteworthy AEs: none in placebo; for subjects with AEs of clinical importance: placebo 4
Experimental: On study day −1 (baseline), eligible subjects were randomly assigned to 1 of 2 fixed doses of ODV (50 or 100 mg/day) or to placebo for the 8-week double-blind treatment period. A 7-day taper period after the end of double-blind treatment was recommended but may have been omitted, shortened, or lengthened at the discretion of the investigator. Subjects assigned to the ODV 50 mg dose group received their maintenance dose beginning on study day 1 and continued this regimen until study day 56 or early withdrawal. For the taper period (days 1 through 7 after the end of the double-blind treatment period), they received 0 mg. Subjects assigned to the ODV 100 mg dose group were titrated to their maintenance dose. On study days 1 through 7 they received ODV 50 mg/day. Beginning on study day 8, they received their assigned dose of ODV 100 mg/day and continued on this regimen until study day 56 or early withdrawal. For the taper period (days 1 through 7 after the end of the double-blind treatment period), they received ODV 50 mg/day. Subjects assigned to placebo received their maintenance dose (0 mg) from study day 1 through day 56 or early withdrawal, and also received 0 mg during the taper period.
The safety of the two doses was determined using the following assessments: monitoring of adverse events (AEs), withdrawal because of AEs, concomitant medications, physical examinations, standard 12-lead electrocardiograms (ECGs), vital signs (supine and standing pulse rate and blood pressure (BP); body weight), laboratory determinations (hematology, blood chemistry, and urinalysis; free thyroxine index, including total thyroxine and triiodothyronine, and the β-HCG), and the Discontinuation-Emergent Signs and Symptoms (DESS) checklist.

[4] = test system: subjects with a primary diagnosis of MDD; assay: MDD Study No. 3: safety evaluation (discontinuations, AEs); format: in vivo, human; conditions: count; for Adverse Event Abnormal Dreams, subjects / Adverse Event Vomiting, subjects: placebo 3 (2); for Adverse Event Constipation, subjects: placebo 4 (3); for Adverse Event Anorexia, subjects / Adverse Event Flu Syndrome, subjects: placebo 5 (3); for Adverse Event Asthenia, subjects / Adverse Event Insomnia, subjects: placebo 6 (4); for Adverse Event Somnolence, subjects: placebo 8 (5); for Adverse Event Nausea, subjects: placebo 14 (9)
Experimental: The safety of the two doses was determined using the same assessments as in Example 1.

[5] = test system: norepinephrine and serotonin uptake; conditions: Klamerus et al., J. Clin. Pharmacol. 32:716-724 (1992); cited from earlier work
[6] = 50 mg group, number of subjects
[7] = all subjects, 50 and 100 mg/day
[8] = 100 mg group, number of subjects

## CN(C)CC(c1ccc(O)cc1)C1(O)CCCCC1 (stereo not drawn) [ODV, 1-[2-(dimethylamino)-1-(4-phenol)ethyl]-cyclohexanol]
[1]; 50 mg/day, LOCF
  HAM-D17 total score, Diff. versus Placebo (95% CI): 1.1 (−0.6, 2.7)
[1]; 50 mg/day, MMRM
  HAM-D17 total score, Diff. versus Placebo (95% CI): 1.4 (−0.0, 2.8)
[1]; 50 mg/day, OC
  HAM-D17 total score, Diff. versus Placebo (95% CI): 1.8 (−0.1, 3.6)
[1]; 50 mg/day
  CGI-S score, Δ from Baseline: −1.25
[1]; 50 mg/day, baseline 12.8
  HAM-D6, Δ from Baseline: −5.41
[1]; 50 mg/day, baseline 30.1
  MADRS total score, Δ from Baseline: −12.7
[1]; 100 mg/day, LOCF
  HAM-D17 total score, Diff. versus Placebo (95% CI): 1.8 (0.2, 3.4)
[1]; 100 mg/day, MMRM
  HAM-D17 total score, Diff. versus Placebo (95% CI): 2.2 (0.7, 3.6)
[1]; 100 mg/day, OC
  HAM-D17 total score, Diff. versus Placebo (95% CI): 2.9 (1.0, 4.7)
[1]; 100 mg/day
  CGI-S score, Δ from Baseline: −1.44
[1]; 100 mg/day, baseline 12.9
  HAM-D6, Δ from Baseline: −6.15
[1]; 100 mg/day, baseline 30.0
  MADRS total score, Δ from Baseline: −14.4
[2]; 50 mg group
  incidence of nausea leading to discontinuation: 1.2%
  incidence of sweating leading to discontinuation: 1.2%
  incidence of vomiting leading to discontinuation: 1.2%
  most common (incidence≧5%) taper/poststudy-emergent AEs: headache, nausea, dizziness, and insomnia
  subjects with clinically important elevated SGPT/ALT levels: another subject
  subjects with AEs as reason for discontinuation: 5%
[2]; 50 mg group, during the 7-day taper period
  p-value, mean DESS scores in comparison with placebo: 0.001
[2]; [6]
  subjects with clinically important increased total cholesterol levels: 1
[2]; 50 mg group, number of subjects, placebo 1
  subjects with clinically important elevated SGOT/AST levels: 1
[2]; 100 mg group
  incidence of anorgasmia in men leading to discontinuation: 2.1%
  incidence of asthenia leading to discontinuation: 1.3%
  incidence of headache leading to discontinuation: 1.3%
  incidence of nausea leading to discontinuation: 3.8%
  most common (incidence≧5%) TPAEs: headache, nausea, depression, dizziness, and vertigo
  subjects with AEs as reason for discontinuation: 7%
[2]; 100 mg group, week after the 7-day taper period
  p-value, mean DESS in comparison with placebo: 0.017
[2]; [7]
  SAEs during the on-therapy period: None of the subjects had SAEs during the on-therapy period
  deaths during the study: No deaths occurred during this study
[3]; 50 mg group
  most common (incidence≧5%) taper/poststudy-emergent AEs: diarrhea, nausea, abnormal dreams, dizziness, and hostility
[3]; 50 mg group, 151 subjects
  subjects with AEs as reason for study discontinuation: 3%
[3]; 50 mg group, first week of the taper period
  p-value, mean DESS scores compared with placebo: 0.001
[3]; [6]
  subjects with clinically important AE hypertension: 2
  subjects with clinically important AE hypotension: 2
  subjects with laboratory values considered clinically important by the medical monitor: 2
  subjects reporting serious or noteworthy AEs: 5
  subjects with AEs of clinical importance: 13
[3]; 100 mg group, 148 subjects
  subjects with AEs as reason for study discontinuation: 7%
[3]; [8]
  subjects with clinically important AE hypertension: 1
  subjects with laboratory values considered clinically important by the medical monitor: 3
  subjects reporting serious or noteworthy AEs: 4
  subjects with AEs of clinical importance: 10
[3]; ODV treated subjects, both doses, 3 elevated supine BP, 1 postural hypotension
  subjects with clinically important vital signs results: four
[3]; [7]
  clinically important findings for ECGs or ECG-related AEs: None of the subjects had clinically important findings for ECGs
[4]; 50 mg, n = 148
  Discontinued, reason Adverse Event, subjects: 8 (5)
  Adverse Event Abnormal Dreams, subjects: 5 (3)
  Adverse Event Vomiting, subjects: 2 (1)
  Adverse Event Constipation, subjects: 9 (6)
  Adverse Event Anorexia, subjects: 14 (10)
  Adverse Event Flu Syndrome, subjects: 6 (4)
  Adverse Event Asthenia, subjects: 12 (8)
  Adverse Event Insomnia, subjects: 20 (14)
  Adverse Event Somnolence, subjects: 14 (10)
  Adverse Event Nausea, subjects: 33 (22)
[4]; 100 mg, n = 150
  Discontinued, reason Adverse Event, subjects: 11 (7)
  Adverse Event Abnormal Dreams, subjects: 4 (3)
  Adverse Event Vomiting, subjects: 6 (4)
  Adverse Event Constipation, subjects: 10 (7)
  Adverse Event Anorexia, subjects: 14 (9)
  Adverse Event Flu Syndrome, subjects: 10 (7)
  Adverse Event Asthenia, subjects: 18 (12)
  Adverse Event Insomnia, subjects: 26 (17)
  Adverse Event Somnolence, subjects: 18 (12)
  Adverse Event Nausea, subjects: 35 (23)
[5]
  inhibition of norepinephrine and serotonin uptake: has been shown to inhibit norepinephrine and serotonin uptake
